In one data set the test system is edema in mouse's ear. Kind of data set: Depressant action on edema in mouse's ear (TPA-induced, myeloperoxidase). The format is in vivo, ICR mouse. The settings on record: topical on ear, TPA 25 μg, 5 hours. The procedure: (§1) Regarding the compounds in some of the above Examples and indomethacin, depressant action on edema in mouse's ear and depressant action on edema in mouse's foot being induced by carrageenan are being measured by the following 2 methods. And the results of the depressant action on edema in mouse's ear and depressant action on edema in mouse's foot being induced by carrageenan are shown in Table 5.
1. Measurement of Depressant Action on Edama in Mouse's Ear
At 30 minutes after coating the left ear of ICR mouse, weighing 20 g, with a solution of appropriate amount of sample in 20 μl of mixed solvent DMSO:acetone(1:9), 25 μg of TPA(tetradecanoylphorbol acetate) was coated on both ears. The determination of depressant action on edama was made in 5 hours later by the number of neutral granulocyte gathering in the ear after inducing TPA inflammation. The number of neutral granulocyte was estimated by measuring the activation of myeloperoxidase.

Another data set has as its target T1, COX-2 (Mus musculus, UniProt Q05769).
T1 construct: endogenous in cells; host or cells: peritoneal macrophages of C57BL/6 mouse, aspirin-pretreated, LPS-induced
T1 sequence (Q05769 18-604): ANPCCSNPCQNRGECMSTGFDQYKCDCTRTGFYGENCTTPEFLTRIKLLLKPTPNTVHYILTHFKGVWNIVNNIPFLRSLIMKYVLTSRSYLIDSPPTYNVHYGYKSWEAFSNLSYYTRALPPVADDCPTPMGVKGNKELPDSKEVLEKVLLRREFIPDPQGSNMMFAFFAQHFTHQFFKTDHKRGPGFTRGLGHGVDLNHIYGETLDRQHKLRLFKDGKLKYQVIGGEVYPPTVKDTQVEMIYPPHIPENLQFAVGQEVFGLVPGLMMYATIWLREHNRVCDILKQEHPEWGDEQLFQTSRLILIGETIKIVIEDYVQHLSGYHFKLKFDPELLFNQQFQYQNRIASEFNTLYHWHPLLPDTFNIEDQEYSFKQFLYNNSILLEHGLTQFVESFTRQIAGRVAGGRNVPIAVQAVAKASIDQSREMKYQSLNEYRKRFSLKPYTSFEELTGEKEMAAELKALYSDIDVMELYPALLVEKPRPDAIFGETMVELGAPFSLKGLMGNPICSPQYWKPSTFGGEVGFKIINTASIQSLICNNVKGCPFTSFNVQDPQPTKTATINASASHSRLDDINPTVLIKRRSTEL
Description: Evaluation of COX-2's inhibition efficacy (PGE2 radioimmuno assay, LPS-induced, aspirin-pretreated peritoneal macrophages). The data set is classed as cell-based, C57BL/6 mouse. The settings on record: for inhibition at 0.1 µg/mL: 0.1 μg/ml; for inhibition at 1 µg/mL: 1 μg/ml; for inhibition at 10 µg/mL: 10 μg/ml. The method, boiled down: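 C57BL/6 mouse peritoneal macrophages, adhered 2 h at 37 °C, were LPS-stimulated to induce COX-2. Cells were then treated 10 min with compound, followed by 10 min with 10 μM arachidonic acid (final). PGE2 in the supernatant was quantified by radioimmunoassay.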

Data set [1] relates to edema in mouse's foot induced by carrageenan. Kind of data set: Depressant action on edema in mouse's foot induced by carrageenan. The format is in vivo, Male Sprague-Dawley rat. Particulars: po, 3 h, read-out: depressant rate of edema rate induced by carrageenan (oral administration), % depression; for inhibition in vivo at 50 mg/kg: 50 mg/kg p.o.; for inhibition in vivo at 30 mg/kg: 30 mg/kg p.o. The procedure: as §1
2. Measurement of Depressant Action on Edama in Mouse's Foot Induced by Carrageenan
At 1 hour after oral administering to Male-Sprague-Dawley-white mouse, weighing 150˜200 g, with a suspended solution of appropriate amount of sample in 0.5% of carboxymethyl cellulose and 0.2% of TWEN solution, edema on the right foot of mouse was induced by injecting 0.1 ml(1%) of carrageenan-saline solution. Right after the inducement of edema by carrageenan and 3 hours later, the edema rate was estimated by measuring white mouse's foot volume with Displacement Plethysmometer(Ugo Basile, Italy). Carrageenan injection Drug was administered 1 hour before the carrageenan injection. Depressant rate of edema is produced by the following equation 1.
% Depressant rate of edema=(1 ? Vtreated group/ ? Vcontrol group)×100 ? V: change of foot volume [Equation 1]

The target in the next data set is T2, COX-1 (Mus musculus, UniProt P22437).
T2 construct: there is no pre-treatment of aspirin and LPS in the adhesion of macrophage; endogenous in cells; host or cells: peritoneal macrophages of C57BL/6 mouse, without aspirin and LPS pre-treatment
T2 sequence (P22437 27-602): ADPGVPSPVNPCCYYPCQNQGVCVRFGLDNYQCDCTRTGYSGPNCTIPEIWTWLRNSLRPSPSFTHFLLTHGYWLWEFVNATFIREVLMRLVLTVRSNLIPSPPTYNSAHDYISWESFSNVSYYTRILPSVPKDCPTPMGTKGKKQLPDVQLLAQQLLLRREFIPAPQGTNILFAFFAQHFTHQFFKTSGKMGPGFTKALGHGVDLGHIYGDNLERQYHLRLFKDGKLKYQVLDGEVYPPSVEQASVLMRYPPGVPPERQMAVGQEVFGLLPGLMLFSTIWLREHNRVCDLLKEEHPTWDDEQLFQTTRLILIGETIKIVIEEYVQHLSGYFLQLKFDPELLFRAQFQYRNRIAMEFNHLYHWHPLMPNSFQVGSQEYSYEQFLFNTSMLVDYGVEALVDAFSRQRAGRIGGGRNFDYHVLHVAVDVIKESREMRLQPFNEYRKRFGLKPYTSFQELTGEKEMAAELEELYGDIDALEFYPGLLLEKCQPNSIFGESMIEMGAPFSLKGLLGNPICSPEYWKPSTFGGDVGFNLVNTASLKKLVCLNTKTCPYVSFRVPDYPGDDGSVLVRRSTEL
Description: Evaluation of COX-1's inhibition efficacy (macrophages without aspirin and LPS pre-treatment). The format is cell-based, C57BL/6 mouse. The settings on record: 10 μg/ml. The gist of the method: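 C57BL/6 mouse peritoneal macrophages (1×10^6 cells/mL) were adhered for 2 h at 37° C without aspirin or LPS pretreatment. Compound was given for 10 min at 37° C, then arachidonic acid (10 μM final) for 10 min. Supernatant PGE2 was measured by radioimmunoassay, with 100% activity set as PGE2 with versus without arachidonic acid.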

From US6340694B1, “Diarylbenzopyran derivatives as cyclooxygenase-2 inhibitors” (Pacific Corporation, priority 1998, dated 2002) come the findings set out here.

Some results are limits rather than exact numbers.

Broadly, the inhibition is the drop in the measured response relative to a control, in per cent. As usually defined, the melting point is the temperature, or range, at which the solid turns liquid. On to `Cc1ccc(-c2c(-c3ccc(S(C)(=O)=O)cc3)oc3ccccc3c2=O)cc1` [Example 3, 3-(4-Methylphenyl)-2-(4-(methylsulfonyl)phenyl)-4H-1-benzopyran-4-one], for which the melting point worked out at 225 °C. Also, the “depressant rate of ear edema, ED50” value with edema in mouse's ear was 1.2 mg/ear, ED50. Moreover, at COX-2, the inhibition at 0.1 µg/mL was determined as 13%, the inhibition at 1 µg/mL was determined as 61% and the inhibition at 10 µg/mL came to 72%. Further, in data set [1], the inhibition in vivo at 50 mg/kg turned out to be 52%.

In the case of `CS(=O)(=O)c1ccc(-c2oc3ccccc3c(=O)c2-c2ccc(F)cc2)cc1` [Example 1, 3-(4-Fluorophenyl)-2-(4-(methylsulfonyl)phenyl)-4H-1-benzo-pyran-4-one], the “depressant rate of ear edema, ED50” value in the data set on edema in mouse's ear was 0.4 mg/ear, ED50. On COX-2, the inhibition at 0.1 µg/mL was determined as 94% and the inhibition at 1 µg/mL was 100%. Also, the inhibition at 10 µg/mL at COX-1 was < 5%. In addition, the inhibition in vivo at 50 mg/kg in data set [1] was determined as 43%.

For the compound `CS(=O)(=O)c1ccc(-c2oc3ccccc3c(=O)c2-c2ccc(F)c(Cl)c2)cc1` [Example 26, 3-(3-Chloro-4-fluorophenyl)-2-(4-(methylsulfonyl)phenyl)-4H-1-benzopyran-4-one], the “depressant rate of ear edema, ED50” value in the data set on edema in mouse's ear is 0.6 mg/ear, ED50. In data set [1], the inhibition in vivo at 50 mg/kg stood at 23%.

As to `CS(=O)(=O)c1ccc(-c2oc3ccccc3c(=O)c2-c2ccccc2F)cc1` [Example 12, 3-(2-Fluorophenyl)-2-(4-(methylsulfonyl)phenyl)-4H-1-benzopyran-4-one], the “depressant rate of ear edema, ED50” value with edema in mouse's ear is reported as 0.4 mg/ear, ED50. Further, the inhibition in vivo at 30 mg/kg in data set [1] was determined as 20%.

With `CS(=O)(=O)c1ccc(-c2oc3ccccc3c(=S)c2-c2ccc(F)cc2)cc1` [Example 36, 3-(4-Fluorophenyl)-2-(4-(methylsulfonyl)phenyl)-4H-1-benzopyran-4-thione], the “depressant rate of ear edema, ED50” value in the data set on edema in mouse's ear is on record as 1.0 mg/ear, ED50. For the same compound, at COX-2, the inhibition at 0.1 µg/mL amounted to 56%, the inhibition at 1 µg/mL came to 80% and the inhibition at 10 µg/mL amounted to 100%. At COX-1, the inhibition at 10 µg/mL was < 5%. Also, in data set [1], the inhibition in vivo at 30 mg/kg was found to be 20%.
